According to patent US20240226066A1, “CARDIOPROTECTION BY AUTOPHAGY INDUCTION AND METABOLIC REPROGRAMMING” (UNIVERSITE PARIS-SACLAY, priority 2021, published 2024):

Legend:
RNVCs = experiment: Mitochondrial ROS production with MitoSOX fluorescent probe; assay type: cell-based, rat; settings: 1 μM, 6 h
Protocol: FIG. 12: The RNVCs were treated with 0.1% DMSO, 3 μM rapamycin, 1 μM digitoxigenin, 1 μM digoxin, 1 μM minaprin, 1 μM VP331, 1 μM LOPA87, 10 μM SG6163F for 6 h, then the ROS production was stained with the MitoSOX fluorescent probe.
The RNVCs were treated with 0.01% DMSO, 3 μM rapamycin, […], 1 μM digoxin, 1 μM minaprine, 1 μM VP331, 1 μM LOPA87, 10 μM SG6163F in a serum-free cell culture medium for 6 hours. The contents (50 μg) of a MitoSOX™ mitochondrial superoxide indicator vial (ThermoFisher, M36008) were dissolved in 13 μl dimethyl sulfoxide (DMSO) to prepare a 5 mM MitoSOX™ reagent stock solution. Next, the 5 mM MitoSOX™ reagent stock solution in PBS was diluted to prepare a 5 μM working solution of MitoSOX™ reagent. After treatment, the cells were rinsed twice with hot PBS and then incubated with a MitoSOX reagent working solution for 10 minutes at 37° C. The cells were gently rinsed three times with hot PBS. Red fluorescence was detected with a Leica confocal microscope. Nuclear fluorescence was suppressed and mitochondrial fluorescence intensity was measured using ImageJ software.
ROSs are produced or accumulated as a by-product of mitochondrial activity metabolism. Thus, the ROSs may be a consequence of mitochondrial function or may reflect a defect in the mitochondrial antioxidant system.

H9C2 cells = experiment: Exogenous fatty acid oxidation (XF palmitate-BSA FAO substrate with mito stress test); assay type: cell-based, rat; settings: fatty acids as substrate
Protocol: FIG. 8C: the oxidation of the exogenous fatty acids was measured simultaneously using the XF palmitate-BSA FAO substrate kit with the mito stress test on XF cells. Before starting the test, 30 μL of XF palmitate-BSA CAM or BSA control substrate were added to the appropriate wells.
The XFe96 extracellular flow analyzer (Seahorse Biosciences, North Billerica, MA, USA) was used to measure the bioenergetic function of H9C2 cardiomyocytes. The H9C2 cells were seeded at 20 000 cells per well in XF96 cell culture microplates; all the pretreatments were carried out with serum-free cell culture medium. The Agilent Seahorse XF glycolysis stress test was performed to measure glycolytic function in the H9C2 cells; the extracellular acidification rate (ECAR) was measured sequentially by 3 injections, 10 mM glucose, 2 μM oligomycin and 50 mM 2-deoxy-D-glucose (2-DG). The Agilent Seahorse XF Cell Mito stress test measured key parameters of mitochondrial function by directly measuring the oxygen consumption rate (OCR) of the H9C2 cells. […] The oxidation of the exogenous fatty acids was measured simultaneously using the XF palmitate-BSA FAO substrate kit with the mitochondrial stress test on XF cells. […]
Next, the energy metabolism was analyzed in real time using the Seahorse technology in H9C2 cells.

SMILES | local level of mitochondrial superoxide anion (RNVCs) | oxidative phosphorylation (H9C2 cells)
C[C@]12CC[C@H](O)C[C@H]1CC[C@@H]1[C@@H]2CC[C@]2(C)[C@@H](C3=CC(=O)OC3)CC[C@]12O [digitoxigenin] | induced an elevation | 
C[C@H]1O[C@@H](O[C@H]2[C@@H](O)C[C@H](O[C@H]3[C@@H](O)CC(O[C@H]4CC[C@@]5(C)[C@H](CC[C@@H]6[C@@H]5C[C@@H](O)[C@]5(C)[C@@H](C7=CC(=O)OC7)CC[C@]65O)C4)O[C@@H]3C)O[C@@H]2C)C[C@H](O)[C@@H]1O (some centres unmarked) [digoxin] |  | improved oxidative phosphorylation
